{"source": "paper PMC2935281", "about": "(Acta Crystallographica Section D: Biological Crystallography, 2010)", "key": {"[1]": {"molecular_target": "T1, B. anthracis lumazine synthase (BaLS) (Bacillus anthracis, UniProt Q81MB5)", "T1 sequence (Q81MB5 whole entry, looked up)": "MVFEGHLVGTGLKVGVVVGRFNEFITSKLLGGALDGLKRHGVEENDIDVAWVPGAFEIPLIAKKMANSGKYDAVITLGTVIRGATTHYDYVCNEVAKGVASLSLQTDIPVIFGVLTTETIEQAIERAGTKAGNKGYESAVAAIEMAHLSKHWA", "test": "biochemical", "format": "binding", "details": "for Binding enthalpy ΔH / Free energy of binding ΔG / No. of sites n / TΔS: pH 7"}, "[2]": {"molecular_target": "T1, B. anthracis lumazine synthase (BaLS)", "test": "biochemical", "details": "for Mechanism: pH 7"}, "C. albicans LS (CaLS)": {"molecular_target": "C. albicans LS (CaLS)", "details": "read-out: Dissociation constant Kd; cited from earlier work"}, "[3]": {"molecular_target": "LS from M. tuberculosis (MtLS)", "details": "read-out: Dissociation constant Kd; cited from earlier work"}}}
{"compound": "O=c1[nH]c(Cl)c(CCCCOP(=O)(O)O)c(=O)[nH]1", "note": "[JC33, 4-(6-Chloro-2,4-dioxo-1,2,3,4-tetrahydropyrimidine-5-yl)-n-butyl 1-phosphate]", "values": [{"measurement": "Kd", "setting": "[1]", "result": "1750 ± 40", "unit": "nM"}, {"measurement": "Binding enthalpy ΔH", "setting": "[1]", "result": "-7.50 ± 0.07", "unit": "kcal/mol"}, {"measurement": "Free energy of binding ΔG", "setting": "[1]", "result": "-7.98 ± 0.02", "unit": "kcal/mol"}, {"measurement": "No. of sites n", "setting": "[1]", "result": "0.98 ± 0.04"}, {"measurement": "TΔS", "setting": "[1]", "result": "0.47 ± 0.07", "unit": "kcal/mol"}, {"measurement": "Ki", "setting": "[2]", "result": 23, "unit": "nM"}, {"measurement": "Mechanism", "setting": "[2]", "result": "Competitive"}, {"measurement": "Ks", "setting": "[2]; pH 7.0", "result": "8.0 ± 0.5", "unit": "µM"}, {"measurement": "kcat", "setting": "[2]; pH 7.0", "result": "0.01 ± 0.00017", "unit": "s⁻¹"}, {"measurement": "Kd", "setting": "C. albicans LS (CaLS)", "result": "150 ± 40", "unit": "nM"}, {"measurement": "Kd", "setting": "[3]", "result": "720 ± 20", "unit": "nM"}]}
{"compound": "O=c1[nH]c(Cl)c(CCCCCP(=O)(O)O)c(=O)[nH]1", "note": "[JC72, 5-(6-chloro-2,4-dioxo-1,2,3,4-tetrahydropyrimidine-5-yl)-n-pentyl 1-phosphonate]", "values": [{"measurement": "Kd", "setting": "[1]", "result": "3940 ± 10", "unit": "nM"}, {"measurement": "Binding enthalpy ΔH", "setting": "[1]", "result": "-5.29 ± 0.8", "unit": "kcal/mol"}, {"measurement": "Free energy of binding ΔG", "setting": "[1]", "result": "-7.49 ± 0.01", "unit": "kcal/mol"}, {"measurement": "No. of sites n", "setting": "[1]", "result": "0.98 ± 0.12"}, {"measurement": "TΔS", "setting": "[1]", "result": "2.20 ± 0.79", "unit": "kcal/mol"}, {"measurement": "Ki", "setting": "[2]", "result": 430, "unit": "nM"}, {"measurement": "increase of the Ki value in comparison to JC33", "setting": "[2]", "result": "approximately 20 fold"}, {"measurement": "Mechanism", "setting": "[2]", "result": "Partial"}, {"measurement": "Kis", "setting": "[2]; pH 7.0", "result": "9.5 ± 3.5", "unit": "µM"}, {"measurement": "Ks", "setting": "[2]; pH 7.0", "result": "8.5 ± 0.5", "unit": "µM"}, {"measurement": "kcat", "setting": "[2]; pH 7.0", "result": "0.01 ± 0.00017", "unit": "s⁻¹"}, {"measurement": "k′cat", "setting": "[2]; pH 7.0", "result": "0.28 ± 0.09", "unit": "min⁻¹"}]}
